Experimental data: patent publication US7238813B2, “Chemical compounds” (Smithkline Beecham Corporation, priority 2000, dated 2007)
pIC50: −log10 of the molar value.

Columns and labels:
[1] = tested on: Human umbilical cord endothelial cells (HUVEC); test: VEGF-driven cellular proliferation assay: BrdU incorporation assay (VEGF-C); assay type: cell-based; parameters: key to VEGF-C: + = pIC50 of 5.0–6.0; ++ = pIC50 of 6.0–7.0; +++ = pIC50 of > 7.0; − = a negative or inconclusive result; conditions: for pIC50: Homo sapiens
Description: VFGF-driven Cellular Proliferation Assay: BrdU Incorporation Assay (VEGF-C)
Human umbilical cord endothelial cells (HUVEC, Clonetics, CC2519) were passaged in Type I collagen-coated 100-mm petridishes in EGM-MV medium (Clonetics, CC3125) at 37° C. in a humidified 5% CO2, 95% air incubator. (HUVEC passaged more than 6 times in vitro were discarded and not subjected to assaying.) The cells were harvested using trypsin/EDTA, counted using a haemocytometer and plated at 5000 cells/well in a Type I-collagen coated 96-well plate (Becton Dickinson, 354407) in M199 medium (Gibco BRL, 12340-030) containing 5% FBS (Hyclone, A 1115-L) and gentamicin (at 50 μg/ml, Gibco BRL). After incubation overnight at 37° C., the media were replaced with 100 μl of M199 serum-free medium containing compounds at various concentrations with 0.6% DMSO and gentamicin. The compounds were diluted in serum-free M199 medium from 10 mM stock solutions prepared in 100% DMSO. After a 30 min incubation at 37° C., the cells were fed with 100 μl of serum-free M199 medium containing gentamicin, 0.2% culture-grade bovine serum albumin (BSA, Sigma A1993) and 20 ng/ml of VEGF (R&D systems, 293-VE) or 0.6 ng/ml of basic FGF (R&D systems, 233-FB), and cultured at 37° C. for another 24 h. The cells were pulsed with bromodeoxyuridine (BrdU at 10 μM in serum-free M199) at 37° C. for an additional 24 h. The incorporation of BrdU into the proliferating HUVEC were analyzed using BrdU Cell Proliferation ELISA (Roche Molecular Biochemicals, 1647229) according to the manufacturer's protocols. The optical density at 450 nm was measured with a multilabel counter (ARVO SX, Wallac). The percent inhibition of cell growth was calculated relative to blank control wells. The concentration of test compound that inhibits 50% of cell growth (IC50) was interpolated using nonlinear regression (Levernberg-Marquardt) and the equation, y=Vmax (1−x/(K+x))+Y2, where “K” was equal to the IC50. The IC50, values were converted to pIC50 values, i.e., −log IC50 in Molar concentration.

[2] = molecular target: T1, GST-TIE2 (intracellular domains of human TIE2) (Homo sapiens, UniProt Q02763); test: TIE-2 enzyme assay (TIE2-E), LANCE method; assay type: biochemical; conditions: 80 uM ATP
T1 construct: made in house
T1 sequence (Q02763 762-1104): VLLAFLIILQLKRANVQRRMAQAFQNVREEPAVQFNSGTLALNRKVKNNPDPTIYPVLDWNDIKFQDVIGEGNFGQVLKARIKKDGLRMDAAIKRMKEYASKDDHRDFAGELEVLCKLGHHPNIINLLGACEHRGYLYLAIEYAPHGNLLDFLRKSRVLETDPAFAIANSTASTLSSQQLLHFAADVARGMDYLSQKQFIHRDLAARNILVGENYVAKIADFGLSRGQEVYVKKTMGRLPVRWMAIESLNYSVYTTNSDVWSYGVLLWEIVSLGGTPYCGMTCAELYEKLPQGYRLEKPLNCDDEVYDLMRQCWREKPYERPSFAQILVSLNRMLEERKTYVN
Description: TIE-2Enzyme Assay (TIE2-E)
The TIE-2 enzyme assay used the LANCE method (Wallac) and GST-TIE2, baculovirus expressed recombinant constructs of the intracellular domains of human TIE2 (amino acids 762–1104, GenBank Accession # L06139) tagged by GST). […] This peptide phosphorylation was detected using the following procedure: for enzyme preactivation, GST-TIE2 was incubated for 30 mins at room temperature with 2 mM ATP, 5 mM MgCl2 and 12.5 mM DTT in 22.5 mM HEPES buffer (pH7.4). Preactivated GST-TIE2 was incubated for 30 mins at room temperature in 96 well plates with 1 μM D1-15 peptide, 80 uM ATP, 10 mM MgCl2, 0.1 mg/ml BSA and the test compound (diluted from a 10 mM stock in DMSO, final DMSO concentration was 2.4%) in 1 mM HEPES (pH7.4). The reaction was stopped by the addition of EDTA (final concentration 45 mM). Streptavidin linked-APC (allophycocyanin, Molecular Probe) and Europium-labeled anti-phosphorylated tyrosine antibody (Wallac) were then added at the final concentration of 17 μg/well and 2.1 μg/well, respectively. The APC signal was measured using an ARVO multilabel counter. (Wallac Berthold Japan). The percent inhibition of activity was calculated relative to blank control wells. The concentration of test compound that inhibits 50% of activity (IC50) was interpolated using nonlinear regression (Levernberg-Marquardt) and the equation, y=Vmax (1−x/(K+x))+Y2, where “K” was equal to the IC50. The IC50 values were converted to pIC50 values, i.e., −log IC50 in Molar concentration.

[3] = molecular target: T2, GST-VEGFR2 (Homo sapiens, UniProt P35968); test: VEGF-R2 enzyme assay (VEGF-E), LANCE method; assay type: biochemical; conditions: 75 μM ATP
T2 construct: GST-VEGFR2, baculovirus expressed recombinant constructs of the intracellular domains of human TIE2 tagged by GST; made in house
T2 sequence (P35968 786-1356 limits assumed): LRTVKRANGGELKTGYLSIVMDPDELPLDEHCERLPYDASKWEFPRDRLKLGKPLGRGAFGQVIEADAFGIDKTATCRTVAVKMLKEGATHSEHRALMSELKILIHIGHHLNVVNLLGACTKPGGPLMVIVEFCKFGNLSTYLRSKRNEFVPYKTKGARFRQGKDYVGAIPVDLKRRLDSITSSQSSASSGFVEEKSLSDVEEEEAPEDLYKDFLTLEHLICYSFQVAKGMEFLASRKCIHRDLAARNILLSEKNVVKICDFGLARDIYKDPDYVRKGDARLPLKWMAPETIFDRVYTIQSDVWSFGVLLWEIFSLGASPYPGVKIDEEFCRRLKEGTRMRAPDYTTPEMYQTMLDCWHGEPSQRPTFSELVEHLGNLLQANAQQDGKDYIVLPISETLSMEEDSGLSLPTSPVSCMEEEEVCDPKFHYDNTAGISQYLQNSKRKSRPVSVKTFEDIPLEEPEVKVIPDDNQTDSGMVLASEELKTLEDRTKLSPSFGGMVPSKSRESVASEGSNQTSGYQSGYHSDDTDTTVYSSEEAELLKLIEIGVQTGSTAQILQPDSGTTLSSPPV
Description: VEGF-R2 Enzyme Assay (VEGF-E)
The VEGF enzyme assay used the LANCE method (Wallac) and GST-VEGFR2, baculovirus expressed recombinant constructs of the intracellular domains of human […] tagged by GST. […] The reaction was stopped by the addition of EDTA (final concentration 50 mM). Streptavidin linked-APC (allophycocyanin, Molecular Probe) and Europium-labeled anti-phosphorylated tyrosine antibody (Wallac) were then added at the final concentration of 15 nM and 1 nM, respectively. The APC signal was measured using an ARVO multilabel counter (Wallac Berthold, Japan). The percent inhibition of activity was calculated relative to blank control wells. The concentration of test compound that inhibits 50% of activity (IC50) was interpolated using nonlinear regression (Levernberg-Marquardt) and the equation, y=Vmax (1−x/(K+x))+Y2, where “K” was equal to the IC50. The IC50 values were converted to pIC50 values, i.e., −log IC50 in Molar concentration.

| SMILES | VEGF-C [1] | pIC50 [2] | pIC50 [3] | VEGF-E [3] | pIC50 [1] |
| --- | --- | --- | --- | --- | --- |
| COC(=O)Nc1nc2ccc(Sc3ccc(NC(=O)Nc4cc(C(F)(F)F)cc(C(F)(F)F)c4)cc3)cc2[nH]1 [Example 3, Methyl N-(5-(4-((3,5-di(trifluoromethyl)phenyl)aminocarbonylamino)phenylthio)-1H-benzimidazol-2-yl)carbamate] | − | 6.00 to 7.00 | > 7.00 |  |  |
| COC(=O)Nc1nc2ccc(Sc3ccc(NC(=O)Nc4cc([N+](=O)[O-])ccc4C)cc3)cc2[nH]1 [Example 6, Methyl N-(5-(4-((2-methyl-5-nitrophenyl)aminocarbonylamino)phenylthio)-1H-benzimidazol-2-yl)carbamate] | − | > 7.00 | 5.00 to 6.00 |  |  |
| CCc1cccc(NC(=O)Nc2ccc(Sc3ccc4nc(NC(=O)OC)[nH]c4c3)cc2)c1 [Example 7, Methyl N-(5-(4-((3-ethylphenyl)aminocarbonylamino)phenylthio)-1H-benzimidazol-2-yl)carbamate] | − | > 7.00 |  | − |  |
| COC(=O)Nc1nc2ccc(Sc3ccc(NC(=O)Nc4cc([N+](=O)[O-])ccc4F)cc3)cc2[nH]1 [Example 8, Methyl N-(5-(4-((2-fluoro-5-nitrophenyl)aminocarbonylamino)phenylthio)-1H-benzimidazol-2-yl)carbamate] | − | > 7.00 | > 7.00 |  |  |
| COC(=O)Nc1nc2ccc(Sc3ccc(NC(=O)Nc4cc(C(F)(F)F)ccc4F)cc3)cc2[nH]1 [Example 9, Methyl N-(5-(4-((2-fluoro-5-(trifluoromethyl)phenyl)aminocarbonylamino)phenylthio)-1H-benzimidazol-2-yl)carbamate] | − |  |  |  |  |
| COC(=O)Nc1nc2ccc(Oc3ccc(NC(=O)Nc4cc(C(F)(F)F)ccc4F)cc3)cc2[nH]1 [Example 10, Methyl N-(5-(4-((2-fluoro-5-(trifluoromethyl)phenyl)aminocarbonylamino)phenoxy)-1H-benzimidazol-2-yl)carbamate] |  |  | > 7.00 |  | > 7.00 |
| CC(=O)Nc1nc2cc(Oc3ccc(NC(=O)Nc4cc(C(F)(F)F)ccc4F)cc3)ccc2[nH]1 [Example 25, N-(5-(4-((2-Fluoro-5-(trifluoromethyl)phenyl)aminocarbonylamino)phenoxy)-1H-benzimidazol-2-yl)acetamide] |  |  |  |  | > 7.00 |
| O=C(Nc1ccc(Oc2ccc3[nH]c(NC(=O)c4ccco4)nc3c2)cc1)Nc1cc(C(F)(F)F)ccc1F [Example 27, N-(5-(4-((2-Fluoro-5-(trifluoromethyl)phenyl)aminocarbonylamino)phenoxy)-1H-benzimidazol-2-yl)(2-fury)formamide] |  |  |  |  | 6.00 to 7.00 |
| COC(=O)Nc1nc2c(Br)cc(Oc3ccc(NC(=O)Nc4cc(C(F)(F)F)ccc4F)cc3)cc2s1.Cl [Example 65] | − |  |  |  |  |
| COC(=O)Nc1nc2cc(Oc3ccc(NC(=S)Nc4cccc(OC)c4)cc3)ccc2[nH]1 [Example 185, Methyl N-(5-(4-((3-methoxyphenyl)aminothiocarbonylamino)phenoxy)-1H-benzimidazol-2-yl)carbamate] |  |  | 6.00 to 7.00 |  | 5.00 to 6.00 |
